Reference: patent publication US20120237651A1 (priority 2002, published 2012)
Where “and” joins values, the source holds several entries; their conditions need not be identical. Equal entries are not always repeated. Structures can show the parent of a compound that is named as a salt. Where two headings read alike, the source gives them in different places.

Assays:
[1] = test system: DON contamination; test: Field test, mixed use (1): DON contamination concentration by HPLC-UV (Example 3); type: in vivo, Wheat (cultivar: Haruyutaka)
Experimental: Wheat (cultivar: Haruyutaka) was seeded on Apr. […] A suspension containing potassium phosphite and various fungicidal agents was prepared in a liquid mixture made up of a spreading agent (Gramine S: supplied from Hokkai Sankyo Co., Ltd.) and water. Using potassium phosphite as the compound A, 0.070% P2O5, and the 0.006 to 0.025% fungicidal agent for agri-horticulture for the wheat as the compound B, water solution containing them was prepared, and 100 L thereof per 10 a was sprayed on leaves in the following growth stages. That is, the first spray (June 24, heading date), the second (June 30, flowering stage), the third (July 9) were performed. The harvest was performed on August 12 (50 days after the heading date) by harvesting the wheat in 3.4 m^2 in each section. […] The DON contamination concentration was analyzed using HPLC-UV method in officially fixed methods shown by the Minister of Health, Labor and Welfare. Quantitative analysis was performed by repeating three times, and the quantitative value was an average value thereof.
Preparation of analysis sample solutions and the analysis procedure are briefly described.
To 50 g of the whole grain powder, 85% acetonitrile was added, vigorously agitated for 30 min, and subsequently sonicated for 10 min.
After eliminating impurities with filter paper, a filtrate was purified using a pretreatment column MultiSep #227 to make a solution for analysis.
The test solution for analysis was injected into high performance liquid chromatography, and DON was detected by ultraviolet rays.

[2] = test system: Fusarium head blight; type: in vivo, Wheat (cultivar: Haruyutaka)
[3] = test system: DON contamination; test: Field test, mixed use (2): DON contamination concentration by ELISA (Example 4); type: in vivo, Wheat (cultivar: Haruyutaka)
[4] = test system: Fusarium head blight; type: in vivo, Wheat (cultivar: Haruyutaka); remark: listed apart in the source
[5] = test system: Fusarium head blight; type: in vivo, Wheat (cultivar: Haruyutaka); remark: listed apart in the source
[6] = test system: DON contamination; parameters: species or system Wheat (cultivar: Haruyutaka); details: in vivo
[7] = test system: DON contamination; test: Field test, single use: DON contamination concentration of wheat whole grain powder by ELISA (Example 1); details: for DON concentration: 3 foliar sprays
Experimental: Wheat (cultivar: Haruyutaka) was seeded on Apr. 19, 2002, and cultivated according to a conventional cultivating standard (Hokkaido, Agriculture Department, 1995) to establish test sections with 6.75 m^2 per section (3 repeats). […] That is, the first spray (June 28, flowering date), the second spray (Jul. 8, 10 days after the flowering date, and the third spray (Jul. 18, 20 days after the flowering date) were performed. A conventional control for the purpose of controlling plant pathogens and plant insects was performed together. That is, the first [June 20, azoxystrobin (2000 times dilution)+fenitrothion (1000 times dilution)], the second [tebuconazole (June 28, 2000 times dilution)+sumithione (1000 times dilution)], and the third [July 8, propiconazole (2000 times dilution)+fenitrothion (1000 times dilution)], the forth [July 17, tebuconazole (2000 times dilution)+fenitrothion (1000 times dilution)] were performed. As controls, the test section where only the conventional control was given and the test section without any control were established. Harvest was performed by harvesting the wheat in 4 m^2 in the test sections on August 9 (52 days after the heading date). After the harvest, the wheat was applied on a rice grader with 2.2 mm opening of screen to make selected grains, which were then pulverized by a rapid pulverizer to make whole grain powder. The whole grain powder was used as a sample for analysis. The DON contamination concentration was analyzed by ELISA method using commercially available Rida Screen Fast Don supplied from r-Biopharm.
Preparation of analysis sample solutions and analysis procedure are briefly described.
To 5 g of the whole grain powder, 100 ml of water was added, and vigorously agitated for 10 min to make a DON extract solution.
The DON extract solution was centrifuged at high speed, and the supernatant was used for the ELISA analysis.
According to the method described on ELISA kit, various reagents were added, and subsequently an absorbance of each test solution was measured.
The DON concentration of each test solution was read out from a standard curve made using DON standard solutions.

[8] = test system: Fusarium graminearum having DON production capacity; type: cell-based
[9] = test system: Fusarium graminearum; type: cell-based; details: potassium phosphite 5.6%; for Ergosterol peak area value: 27° C.
[10] = test system: Fusarium graminearum having DON production capacity; type: cell-based; remark: listed apart in the source
[11] = test system: Fusarium graminearum; type: cell-based; details: for Ergosterol peak area: day 28 of culture
[12] = Tebuconazole 0.020% mixed with potassium phosphite 0.07% P2O5
[13] = Tebuconazole 0.020%, without potassium phosphite
[14] = Tebuconazole 0.020% mixed with potassium phosphite 0.070% in P2O5
[15] = sulfur 0.125% mixed with potassium phosphite 0.070% in P2O5
[16] = sulfur 0.125%, without potassium phosphite
[17] = active ingredient A 0.112% (as P2O5), conventional control
[18] = Trifloxystrobin 0.025% mixed with potassium phosphite 0.070% in P2O5
[19] = Trifloxystrobin 0.025%, without potassium phosphite
[20] = Iminoctadine acetate 0.025% mixed with potassium phosphite 0.07% P2O5
[21] = Iminoctadine acetate 0.025%, without potassium phosphite
[22] = Propiconazole 0.017% mixed with potassium phosphite 0.07% P2O5
[23] = Propiconazole 0.017%, without potassium phosphite
[24] = Propiconazole 0.017% mixed with potassium phosphite 0.070% in P2O5
[25] = Metconazole 0.006% mixed with potassium phosphite 0.07% P2O5
[26] = Metconazole 0.006%, without potassium phosphite
[27] = Kresoxim-methyl 0.021% mixed with potassium phosphite 0.07% P2O5
[28] = Kresoxim-methyl 0.021%, without potassium phosphite
[29] = active ingredient A 0.038% (as P2O5), conventional control
[30] = active ingredient A 0.070% (as P2O5), conventional control
[31] = active ingredient A 0.112% (as P2O5), no control
[32] = potassium phosphite 0.07% P2O5 alone, no active ingredient B
[33] = potassium phosphite 0.070% in P2O5 alone, no active ingredient B
[34] = active ingredient A 0.120% (as P2O5), conventional control

For CC(C)(C)C(O)(CCc1ccc(Cl)cc1)Cn1cncn1 (racemic) [Tebuconazole, (RS)-1-p-chlorophenyl-4,4-dimethyl-3-(1H-1,2,4-triazol-1-ylmethyl)pentan-3-ol], the DON concentration [1, 12] was 0.38 ppm, the DON concentration [1, 13] was 0.39 ppm and the “Incidence rate for panicles” value [2, 12] was 1.0%. For the same compound, the “Number of diseased spikelets/panicle” value [2, 12] was 0.010, the DON concentration [3, 14] was 0.08 ppm and the DON concentration [3, 13] was 0.16 ppm. For the same compound, the “Incidence rate for panicles” value [4, 14] was 5.0% and the “Number of diseased spikelets/panicle” value [4, 14] was 5.0.

In the case of S1SSSSSSS1 [sulfur], the DON concentration [3, 15] is reported as 0.43 ppm, the DON concentration [3, 16] is reported as 1.85 ppm and the “Incidence rate for panicles” value [4, 15] is reported as 8.7%. The “Number of diseased spikelets/panicle” value [4, 15] was 8.7, the “Incidence rate for panicles” value [4, 16] was 8.7% and the “Number of diseased spikelets/panicle” value [4, 16] was 10.3.

With potassium phosphate the “Incidence rate of Fusarium head blight for panicles” value [5, 17] was 0.0%, the “DON concentration diseased grain” value [6] was 86.9 ppm and the “DON concentration healthy grain” value [6] was 0.06 ppm. The DON inhibitory effect ([7]; Example 1, summary in text) was “low” and the DON concentration [7, 17] was 4.66 ppm.

For CON=C(C(=O)OC)c1ccccc1CON=C(C)c1cccc(C(F)(F)F)c1 [Trifloxystrobin], the DON concentration [3, 18] was 0.12 ppm, the DON concentration [3, 19] was 0.35 ppm and the “Incidence rate for panicles” value [4, 18] was 3.0%. For the same compound, the “Number of diseased spikelets/panicle” value [4, 18] was 3.0, the “Incidence rate for panicles” value [4, 19] was 4.3% and the “Number of diseased spikelets/panicle” value [4, 19] was 5.0.

For CC(=O)O.CC(=O)O.CC(=O)O.NC(N)=NCCCCCCCCNCCCCCCCCN=C(N)N [Iminoctadine acetate, 1,1′-iminodi(octamethylene)diguanidium=triacetate], the DON concentration [1, 20] was 0.20 ppm, the DON concentration [1, 21] was 1.04 ppm and the “Incidence rate for panicles” value [2, 20] was 3.0%. For the same compound, the “Number of diseased spikelets/panicle” value [2, 20] was 0.030, the “Incidence rate for panicles” value [2, 21] was 1.7% and the “Number of diseased spikelets/panicle” value [2, 21] was 0.017.

CCCC1COC(Cn2cncn2)(c2ccc(Cl)cc2Cl)O1 (stereo not drawn) [Propiconazole, 1-[2-(2,4-dichlorophenyl)-4-propyl-1,3-dioxolan-2-ylmethyl)-1H-1,2,4-triazole] was tested, and the DON concentration [1, 22] was 0.72 ppm, the DON concentration [1, 23] was 1.01 ppm and the “Incidence rate for panicles” value [2, 22] was 2.7%. For the same compound, the “Number of diseased spikelets/panicle” value [2, 22] was 0.027, the DON concentration [3, 24] was 0.11 ppm and the DON concentration [3, 23] was 0.57 ppm. For the same compound, the “Incidence rate for panicles” value [4, 24] was 4.7% and the “Number of diseased spikelets/panicle” value [4, 24] was 5.0.

For CC1(C)CCC(Cc2ccc(Cl)cc2)C1(O)Cn1cncn1 (racemic) [Metconazole, (1RS,5RS)-5-(4-chlorobenzyl)-2,2-dimethyl-1-(1-H-1,2,4-triazol-1-ylmethyl)cyclopentanol], the DON concentration [1, 25] was 0.10 ppm, the DON concentration [1, 26] was 0.34 ppm and the “Incidence rate for panicles” value [2, 25] was 1.0%. The “Number of diseased spikelets/panicle” value [2, 25] was 0.010, the “Incidence rate for panicles” value [2, 26] was 0.7% and the “Number of diseased spikelets/panicle” value [2, 26] was 0.007.

CO/N=C(/C(=O)OC)c1ccccc1COc1ccccc1C [Kresoxim-methyl, methyl=(E)-2-methoxyimino[α-(o-tolyloxy)-o-tolyl]acetate] was tested, and the DON concentration [1, 27] was 0.51 ppm, the DON concentration [1, 28] was 1.05 ppm and the “Incidence rate for panicles” value [2, 27] was 0.7%. The “Number of diseased spikelets/panicle” value [2, 27] was 0.007, the “Incidence rate for panicles” value [2, 28] was 0.3% and the “Number of diseased spikelets/panicle” value [2, 28] was 0.003.

With potassium phosphite the “Incidence rate of Fusarium head blight for panicles” value [5, 29] was 0.3%, the “Incidence rate of Fusarium head blight for panicles” value [5, 30] was 0.0% and the “Incidence rate of Fusarium head blight for panicles” value [5, 17] was 0.9%. For the same compound, the “Incidence rate of Fusarium head blight for panicles” value [5, 31] was 1.2%, the “DON concentration healthy grain” value [6] was 0.05 ppm and 0.04 ppm and the “DON contamination concentration in diseased grains” value [6] was “decreased depending on the given concentration of potassium phosphite”. The DON concentration [1, 32] was 0.77 ppm, the “Incidence rate for panicles” value [2, 32] was 4.3% and the “Number of diseased spikelets/panicle” value [2, 32] was 0.050. The DON concentration [3, 33] was 0.57 ppm, the DON contamination amount ([3]; single agent treatment with the compound A) was “at a low level” and the “Incidence rate for panicles” value [4, 33] was 10.3%. For the same compound, the “Number of diseased spikelets/panicle” value [4, 33] was 11.0, the DON [8] was “ND. (key: ND.: ND means that the analytical value is less than the detection limit (0.222 ppm) of the ELISA analysis kit.)” and the DON production [8] was “not detected”. For the same compound, the “Ergosterol peak area value” ([9]; 7 days of culturing) was 17952, the “Ergosterol peak area value” ([9]; 14 days of culturing) was 115921 and the “Ergosterol peak area value” ([9]; 21 days of culturing) was 372377. For the same compound, the “Ergosterol peak area value” ([9]; 28 days of culturing) was 350972, the “amount of ergosterol (indicator of the amount of fungi)” value ([9]; course over culture) was “reached a plateau on the 21st day” and the DON amount [10] was “significantly lower than that in the non-treatment”. The Ergosterol peak area ([11]; treatment concentration 0.028%) was 1810454, the Ergosterol peak area ([11]; treatment concentration 0.056%) was 1834861 and the Ergosterol peak area ([11]; treatment concentration 0.112%) was 1769582. For the same compound, the Ergosterol peak area ([11]; treatment concentration 0.560%) was 1921693, the Ergosterol peak area ([11]; treatment concentration 2.800%) was 85891 and the “inhibitory effect on the fungal amount” value ([11]; water solution of 0.056 to 0.560% potassium phosphite, compared to non-treatment) was “inhibitory effect on the fungal amount at a moderate degree”. For the same compound, the “inhibitory effect on the fungal amount” value ([11]; water solution of 2.800% potassium phosphite) was “remarkable inhibitory effect on the fungal amount”, the DON concentration [7, 29] was 2.41 ppm and the DON concentration [7, 30] was 0.59 ppm. The DON concentration [7, 17] was 0.39 ppm and the DON concentration [7, 31] was 0.69 ppm.

For CCO[PH](=O)O [Fosetyl, aluminium salt (common name: fosetyl) of tris(ethylphosphonate)], the “Incidence rate of Fusarium head blight for panicles” value [5, 34] was 0.0%, the “DON concentration diseased grain” value [6] was 11.0 ppm and the “DON concentration healthy grain” value [6] was 0.96 ppm. The DON concentration [7, 34] was 0.84 ppm.

Iminoctadine albesilate was tested, and the DON concentration ([3]; Iminoctadine albesilate 0.030% mixed with potassium phosphite 0.070% in P2O5) was 0.00 ppm, the DON concentration ([3]; Iminoctadine albesilate 0.030%, without potassium phosphite) was 0.22 ppm and the “Incidence rate for panicles” value ([4]; in vivo) was 7.3% and 2.7%.
